This note sets out measurements from ChEMBL document CHEMBL4825659, “Terpenoids from Chinese Liverworts Scapania spp” (J Nat Prod, 2021).

Assay [1] is described as follows: Cytotoxicity against mouse Hepa1c1c7 cells incubated for 24 hrs by MTT based assay. The class given is functional, cell-based. Particulars: Hepa-1c1c7, 24 h.
Assay [2] has as its target NAD(P)H dehydrogenase [quinone] 1 (Mus musculus) (UniProt Q64669). The experiment in a line: Induction of quinone reductase activity in mouse Hepa1c1c7 cells at 50 uM incubated for 24 hrs by MTT based assay relative to control. The class given is cell-based.

Calls of active or inactive are those of the source. The rule behind the calls is not given here.

Sequence of NAD(P)H dehydrogenase [quinone] 1 (Mus musculus) (Q64669 whole entry): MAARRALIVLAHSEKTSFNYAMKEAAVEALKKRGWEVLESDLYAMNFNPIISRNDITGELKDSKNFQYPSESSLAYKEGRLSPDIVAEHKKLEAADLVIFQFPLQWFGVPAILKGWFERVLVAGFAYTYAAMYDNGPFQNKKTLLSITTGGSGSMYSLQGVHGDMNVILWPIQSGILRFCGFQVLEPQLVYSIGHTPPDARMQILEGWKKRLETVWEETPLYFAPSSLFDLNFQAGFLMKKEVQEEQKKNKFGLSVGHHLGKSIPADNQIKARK

With `CC(=O)O[C@@H]1C[C@H](C)[C@@]2(C)C[C@@]3(C4=CC(=O)OC4O)OC[C@]14C2(CC[C@@H]1O[C@@]14C)O3` (some centres undefined), the 50% inhibitory concentration (IC50) in assay [1] was more than 50 µM. In assay [2] (filed as activator), the result was Active.

The compound `CC(=O)O[C@@H]1C[C@H](C)[C@@]2(C)C[C@@]3(C4=CC(O)OC4=O)OC[C@]14C2(CC[C@@H]1O[C@@]14C)O3` (some centres undefined) yielded a concentration for half-maximal inhibition (IC50) in assay [1] of more than 50 µM. In addition, the outcome in assay [2] (filed as activator) was Active.

In assay [1], `CC1(C)CC[C@@H](O)[C@]2(C)[C@@H]1C(=O)C[C@@]13C[C@H]4[C@@H](C(=O)[C@H]12)[C@]4(C)C3` showed an IC50 of more than 50 µM. In assay [2], the result was inactive.

`C[C@H]1C[C@H]2O[C@@]3(C)[C@@H](O)CCC45O[C@@](C6=CC(=O)OC6O)(C[C@]14C)OC[C@@]253` (some centres undefined) displayed a half-inhibitory concentration (IC50) in assay [1] of more than 50 µM. Further, in assay [2], the outcome was inactive.

For `C[C@H]1C[C@H]2O[C@@]3(C)[C@@H](O)CCC45O[C@@](c6ccoc6)(C[C@]14C)OC[C@@]253`, in assay [1], the 50% inhibitory concentration (IC50) is more than 50 µM. For the same compound, the outcome in assay [2] was inactive.

As to `CO[C@]1(C2=CC(=O)OC2O)C[C@]2(C)[C@@H](C)C[C@@H](OC(C)=O)[C@]3(COC(C)=O)C2(CC[C@@H]2O[C@@]23C)O1` (some centres undefined), in assay [1], the IC50 was more than 50 µM. The result in assay [2] (filed as activator) was Active.

Turning to `CC(=O)O[C@@H]1C[C@H](C)[C@@]2(C)C[C@@]3(c4ccoc4)OC[C@]14C2(CC[C@@H]1O[C@@]14C)O3`, in assay [1], the half-maximal inhibitory concentration (IC50) is more than 50 µM. The outcome in assay [2] was inactive.
